“And” between values parts separate entries of the source, which are not always exact repeats. Equal entries are not always repeated. Marks after values point to notes of the source that are not given here.
Columns and labels:
[1] = tested on: LLC (Lewis lung carcinoma) cell line; assay: Cytotoxic assay, in vitro LLC tumor cell assay (SRB method); settings: for 50% Growth Inhibition (ED50): SRB method
[2] = tested on: Wistar derived male or female rats; assay: Cholinergic Agonism, Central/Peripheral in rats (chewing, salivation); format: in vivo, rat; design: key to Peripheral: Salivation: +: exhibiting salivation; settings: 30 mg/kg IP
[3] = tested on: Long Evans derived rats, carrageenan-induced paw edema; assay: Inflammation, Carrageenan in rats (hind paw edema); format: in vivo, rat; settings: 150 mg/kg PO; for Paw Volume Diff: R.P. minus L.P.; for Paw Volume L.P.: left (not injected) hindpaw; for Paw Volume R.P.: right (injected) hindpaw, 3 hours
Procedure: Hind paw edema, as a measure of inflammation, was recorded 3 hours after carrageenan administration using a plethysmometer with water cell (25 mm diameter). Reduction of hind paw edema by 30 percent or more (30%) indicates significant acute anti-inflammatory activity. […] Reduction of hindpaw edema by 30 percent or more (30%), shown in parenthesis, indicates significant acute anti-inflammatory activity. • 4. […] Anticancer Research 19: 1027-1032, 1999)

[4] = tested on: ICR derived male mice on high fat diet; assay: Cholesterol, Serum (Total, HDL, Total/HDL Ratio), Diet-Induced in mice; format: in vivo, mouse; settings: 100 mg/kg × 3 PO
Procedure: Groups of 5 ICR derived male mice weighing 22±2 g were kept on a high fat diet (g/100 g: coconut oil, 8; cholesterol, 1.0; cholic acid, 0.3; lard 2; standard chow 88.7) for 7 days to induce hypercholesterolemia. Test substance was administered orally on days 5, 6 and 7. After fasting overnight, serum was obtained from each mouse and assayed for total cholesterol (Total), high density lipoprotein (HDL) and percent change in Total/HDL. A decrease of 20 percent or more (20%) in serum Total or increase of 20 percent or more (≧20%) in serum HDL or decrease of 40% or more (≧40%) in the Total/HDL ratio relative to vehicle treated control animals is considered significant.
Vehicle, test substance or reference positive compound was administered orally (PO) on days 5, 6 and 7 after being fed a high cholesterol diet. Twenty-four hours after the third dose, the overnight-fasted test animals were sacrificed for assessing serum total cholesterol (Total) and high density lipoprotein (HDL). Decrease of 20 percent or more (20%) in serum Total or increase of 20 percent or more (20%) in serum HDL or decrease of 40% or more (40%) in the Total/HDL ratio is considered significant. • 2. Hepatic Injury, D-Galactosamine (Wrobel et al., J. Med. Chem. 41: 1084, 1998)

[5] = tested on: Wistar derived male rats, D-galactosamine induced hepatic injury; assay: Hepatic Injury, D-Galactosamine in rats; format: in vivo, rat; settings: 300 mg/kg × 3 PO (Guanine, reference)
Procedure: Groups of 5 Wistar derived male rats weighing 200±20 g were used. Each animal was treated with a single injection of D-galactosamine (500 mg/kg, IP) Test substance was administered orally at 0.5 hour before and 4 hours as well as 8 hours after D-galactosamine administration and animals were sacrificed 24 hours later. […] Reduction in ALT or AST activity by 30 percent or more (30%), relative to the vehicle treated control animal indicates significant protection.
Test substance and vehicle were administered orally at 0.5 hour before and 4, 8 hours after a single dose of galactosamine (500 mg/kg, IP). The rats were sacrificed 24 hours after galactosamine injection and the ALT and AST values were determined A reduction of 30% in the ALT and AST relative to the vehicle group is considered significant. • 3. Winter et al., Inflammation, Carrageenan, Proc. Soc.

[6] = tested on: B16-F0 murine melanoma cells; assay: Tumor, Syngeneic, Melanoma, B16-F0 Cell in C57BL/6J mice; settings: B16-F0 in C57BL/6J mice, 2 mg/kg × 6 IP; for Survival Time, Days of Post-treatment: monitored to day 45
[7] = 30-60 min after dosing, individual animals
[8] = positive in 2 or more of 3 = activity
[9] = Ave. of 3 rats (Tables 12 and 13: two experiments), 150 mg/kg
[10] = individual rats (Tables 12 and 13: two experiments), 150 mg/kg

COc1cccc2c1C(=O)c1c(O)c3c(c(O)c1C2=O)C[C@@](O)(C(=O)CO)C[C@@H]3O[C@H]1C[C@H](N)[C@H](O)[C@H](C)O1 [Adriamycin]
50% Growth Inhibition (ED50) [1]: 0.14 µg/mL

COC(=O)C1=CCCN(C)C1 [Arecoline-HBR]
Central: Chewing [2, 7]: + (exhibiting more than 10 seconds of chewing behavior (mouth and/or tongue movements) measured cumulatively)
Peripheral: Salivation [2, 7]: +
Central: Score (positive animals of 3) [2, 8]: (3/3)
Peripheral: Score (positive animals of 3) [2, 8]: (3/3)

CC(=O)Oc1ccccc1C(=O)O [Aspirin]
Paw Volume Diff [3, 9]: 50 ×0.01 ml and 52 ×0.01 ml
Paw Volume Diff [3, 10]: 50 ×0.01 ml and 44 ×0.01 ml and 57 ×0.01 ml and 43 ×0.01 ml and 48 ×0.01 ml and 65 ×0.01 ml
Paw Volume L.P. ([3]; Ave. of 3 rats (Tables 12 and 13: two experiments)): 103 ×0.01 ml
Paw Volume L.P. [3, 10]: 102 ×0.01 ml and 106 ×0.01 ml and 103 ×0.01 ml and 101 ×0.01 ml and 104 ×0.01 ml
Paw Volume R.P. [3, 9]: 154 ×0.01 ml and 155 ×0.01 ml
Paw Volume R.P. [3, 10]: 152 ×0.01 ml and 146 ×0.01 ml and 163 ×0.01 ml and 149 ×0.01 ml and 169 ×0.01 ml

CC(C)(Oc1ccc(CCNC(=O)c2ccc(Cl)cc2)cc1)C(=O)O [Benzafibrate]
HDL Ave. ([4]; Ave. of 5 mice): 113
Total (serum total cholesterol) Ave. ([4]; Ave. of 5 mice): 228
Total/HDL Ave. ([4]; Ave. of 5 mice): 2.02
HDL Indiv. ([4]; individual mice, 100 mg/kg): 91 and 120 and 133 and 123 and 97
Total (serum total cholesterol) Indiv. ([4]; individual mice, 100 mg/kg): 230 and 214 and 225 and 231 and 242
Total/HDL Indiv ([4]; individual mice, 100 mg/kg): 2.53 and 1.78 and 1.69 and 1.88 and 2.49
HDL % Dce ([4]; relative to vehicle): (43) %
Total % Dce ([4]; relative to vehicle): (37) %
Total/HDL % Dce ([4]; relative to vehicle): (56) %

CC(C)=CCOc1ccc(C2=C(CC(C)C)C(=O)NC2=O)cc1 [Compound 2, 3-Isobutyl-4-[4-(3-methyl-2-butenyloxy)phenyl]-1H-pyrrole-2,5-dione]
cytotoxic activity (in words) [1]: cytotoxic
50% Growth Inhibition (ED50) [1]: 3.6 µg/mL

Nc1nc2nc[nH]c2c(=O)[nH]1 [Guanine]
Serum ALT ([5]; individual rats, 300 mg/kg): 508 U/L and 532 U/L and 412 U/L and 436 U/L and 636 U/L
Serum AST ([5]; individual rats, 300 mg/kg): 656 U/L and 912 U/L and 776 U/L and 652 U/L and 1028 U/L
Serum ALT Dec. % ([5]; relative to vehicle): (34) %
Serum AST Dec. % ([5]; relative to vehicle): (33) %

CO[C@@]12[C@H](COC(N)=O)C3=C(C(=O)C(C)=C(N)C3=O)N1C[C@@H]1N[C@@H]12 [Mitomycin]
Survival Time T/C (%) [6]: 125* %
Tumor Weight T/C(%), Day 1 [6]: 100%
Tumor Weight T/C(%), Day 8 [6]: 0* %
Tumor Weight T/C(%), Day 11 [6]: 16* %
Tumor Weight T/C(%), Day 15 [6]: 27* %
Tumor Weight T/C(%), Day 18 [6]: 32* %
Tumor Weight T/C(%), Day 22 [6]: 25* %
Body Weight, Day 1 ([6]; Mean ± SEM): 21.4 ± 1.1 g
Body Weight, Day 8 ([6]; Mean ± SEM): 22.2 ± 0.8 g
Body Weight, Day 11 ([6]; Mean ± SEM): 22.0 ± 1.1 g
Body Weight, Day 15 ([6]; Mean ± SEM): 23.0 ± 1.0 g
Body Weight, Day 18 ([6]; Mean ± SEM): 24.0 ± 1.1 g
Body Weight, Day 22 ([6]; Mean ± SEM): 26.3 ± 1.9 g
Tumor Weight, Day 1 ([6]; Mean ± SEM): 0 mg
Tumor Weight, Day 8 ([6]; Mean ± SEM): 0 ± 0 mg
Tumor Weight, Day 11 ([6]; Mean ± SEM): 34 ± 15 mg
Tumor Weight, Day 15 ([6]; Mean ± SEM): 119 ± 44 mg
Tumor Weight, Day 18 ([6]; Mean ± SEM): 391 ± 142 mg
Tumor Weight, Day 22 ([6]; Mean ± SEM): 587 ± 260 mg
Survival Time, Days of Post-treatment ([6]; Mean ± SEM): 34.0 ± 4.7 days
Body Weight, Day 8 ([6]; individual mice): 20 g
Body Weight, Day 15 ([6]; individual mice): 20 g
Body Weight, Day 22 ([6]; individual mice): 30 g
Tumor Weight, Day 1 ([6]; individual mice): 0 mg
Tumor Weight, Day 8 ([6]; individual mice): 0 mg
Body Weight, Day 1 ([6]; individual mice, 2 mg/kg): 25 g and 22 g (2×) and 19 g (2×)
Body Weight, Day 8 ([6]; individual mice, 2 mg/kg): 25 g and 22 g (2×) and 21 g
Body Weight, Day 11 ([6]; individual mice, 2 mg/kg): 26 g and 22 g (2×) and 21 g and 19 g
Body Weight, Day 15 ([6]; individual mice, 2 mg/kg): 25 g (2×) and 21 g and 24 g
Body Weight, Day 18 ([6]; individual mice, 2 mg/kg): 24 g and 27 g and 22 g and 26 g and 21 g
Body Weight, Day 22 ([6]; individual mice, 2 mg/kg): 27 g (2×) and 21 g and Died
Tumor Weight, Day 11 ([6]; individual mice, 2 mg/kg): 0 mg (2×) and 64 mg and 68 mg and 41 mg
Tumor Weight, Day 15 ([6]; individual mice, 2 mg/kg): 36 mg and 136 mg and 0 mg and 213 mg and 207 mg
Tumor Weight, Day 18 ([6]; individual mice, 2 mg/kg): 256 mg and 849 mg and 0 mg and 525 mg and 327 mg
Tumor Weight, Day 22 ([6]; individual mice, 2 mg/kg): 437 mg and 1248 mg and 0 mg and 663 mg and Died
Survival Time, Days of Post-treatment ([6]; individual mice, 2 mg/kg): 45^a day (2×) and 28 day and 30 day and 22 day
